Series [1] in a line: Drug level in human hepatocytes treated with 6-chloro-5-(6-(dimethylamino)-2-methoxypyridin-3-yl)-1H-indole-3-carboxylic acid at 10 uM after 4 hrs by HPLC-UV analysis. Format: ADME, cell-based, Hepatocyte.
A short description of series [2]: physchem. The settings on record: in vivo, pH 7.4.
Series [3] can be described thus: Half life of the compound in deuteriated phosphate buffer at pH 7.4 at 37 degC measured every 25 mins for 21 hrs by 1H NMR analysis. It is filed as physicochemical.
The nature of series [4]: in vitro. The settings on record: dog, MDCK.
Description: Apparent passive permeability of the compound in RRCK cells by FACS analysis
Series [5] concerns Hepatocyte. To be noted: human, hepatocytes, 4 h, 10 µM.
Description: Retention time of the compound in human hepatocytes at 10 uM after 4 hrs by HPLC-UV analysis
A short description of series [6]: Half life in human primary hepatocytes at 10 uM. Format: ADME, cell-based, Hepatocyte.
The nature of series [7]: Intrinsic clearance in human primary hepatocytes assessed per million cells. It is filed as ADME, cell-based, Hepatocyte. The settings on record: read-out: CLH.
A short description of series [8]: Drug metabolism in human hepatocytes assessed as (2S,3S,4S,5R,6S)-6-((4,6-Difluoro-5-(4-((S)-tetrahydro-2H-pyran-2-yl)phenyl-1H-indole-3-carbonyl)oxy)-3,4,5-trihydroxytetrahydro-2H-pyran-2-carboxylic acid formation at 10 uM after 4 hrs by HPLC-UV analysis. Format: ADME, cell-based, Hepatocyte.
The nature of series [9]: Drug level in human hepatocytes treated with 6-chloro-5-[4-(1-hydroxycyclobutyl)phenyl]-1H-indole-3-carboxylic acid at 10 uM after 4 hrs by HPLC-UV analysis. It is filed as ADME, cell-based, Hepatocyte.
Series [10] can be described thus: Intrinsic clearance in rat hepatocytes assessed per million cells. It is filed as ADME, cell-based, Hepatocyte. The settings on record: read-out: CLH.
The nature of series [11]: in vivo. The settings on record: cynomolgus monkey, urine, iv, 1 mg/kg.
Description: Drug recovery in cynomolgus monkey urine assessed as unchanged parent compound level at 1 mg/kg, iv by LC-MS/MS analysis
Series [12] is described as follows: in vivo. To be noted: cynomolgus monkey, iv, 1 mg/kg.
A short description of series [13]: Plasma clearance in Wistar Han rat at 0.5 mg/kg, iv by LC-MS/MS analysis. It is filed as ADME, organism-based.
Series [14] in a line: AUC (0 to 24 hrs) in Wistar Han rat at 0.5 mg/kg, iv by LC-MS/MS analysis. It is filed as ADME, organism-based. Set-up: time < 24 hr, dose 0.5 mg/kg, route intravenous. To be noted: in vivo.
A short description of series [15]: Volume of distribution at steady state in Wistar Han rat at 0.5 mg/kg, iv by LC-MS/MS analysis. Format: ADME, organism-based. To be noted: in vivo, read-out: Vdss.
Series [16] is described as follows: Intrinsic clearance in monkey hepatocytes assessed per million cells. Format: ADME, cell-based, Macaca mulatta, Hepatocyte. To be noted: rhesus monkey, read-out: CLH.
A short description of series [17]: in vitro. To be noted: human, plasma.
Description: Protein binding in human plasma assessed as unbound fraction
A short description of series [18]: Intrinsic clearance in human hepatocytes assessed per million cells. Format: ADME, cell-based, Hepatocyte. To be noted: read-out: CLH.
Series [19] can be described thus: Half life in human hepatocytes. Format: ADME, cell-based, Hepatocyte.
The subject of series [20] is Rattus norvegicus. Put plainly: AUC (0 to 24 hrs) in Wistar Han rat assessed as 6-chloro-5-[4-(1-hydroxycyclobutyl)phenyl]-1H-indole-3-carboxylic acid level at 0.5 mg/kg, iv by LC-MS/MS analysis. It is filed as ADME, organism-based. Also on record: time < 24 hr, dose 0.5 mg/kg, route intravenous. The settings on record: in vivo.
The nature of series [21]: Half life in monkey hepatocytes. It is filed as ADME, cell-based, Macaca mulatta, Hepatocyte. The settings on record: rhesus monkey.
Series [22] in a line: in vitro. The settings on record: rhesus monkey, plasma.
Description: Protein binding in monkey plasma assessed as unbound fraction
The nature of series [23]: in vitro. The settings on record: rat, plasma.
Description: Protein binding in rat plasma assessed as unbound fraction
The nature of series [24]: in vivo. The settings on record: cynomolgus monkey, iv, 1 mg/kg. This is another data set of the same source.
Description: Half life in cynomolgus monkey at 1 mg/kg, iv by LC-MS/MS analysis
Series [25] is described as follows: Half life in Wistar Han rat at 0.5 mg/kg, iv by LC-MS/MS analysis. It is filed as ADME, organism-based. The settings on record: in vivo.
A short description of series [26]: in vivo. To be noted: cynomolgus monkey, plasma, iv, 1 mg/kg.
Series [27] concerns Cynomolgus monkey. In words: AUC (0 to 24 hrs) in cynomolgus monkey assessed as 6-chloro-5-[4-(1-hydroxycyclobutyl)phenyl]-1H-indole-3-carboxylic acid level at 0.5 mg/kg, iv by LC-MS/MS analysis. Set-up: dose 0.5 mg/kg, time < 24 hr, route intravenous. To be noted: in vivo. Format: ADME, organism-based, Macaca fascicularis.
A short description of series [28]: in vivo. To be noted: cynomolgus monkey, iv, 1 mg/kg. The source holds these as a separate data set.
Description: Volume of distribution at steady state in cynomolgus monkey at 1 mg/kg, iv by LC-MS/MS analysis
The nature of series [29]: Drug recovery in Wistar Han rat urine assessed as unchanged parent compound level at 0.5 mg/kg, iv by LC-MS/MS analysis. The settings on record: read-out: Drug recovery. It is filed as ADME, organism-based.
The nature of series [30]: Half life in rat hepatocytes. It is filed as ADME, cell-based, Hepatocyte.
Series [31] has as its target AMP-activated protein kinase (AMPK) alpha-1/beta-1/gamma-1 (Homo sapiens) (UniProt P54619+Q9Y478+Q13131).
Description: Binding affinity to Bap-tagged human AMPKalpha1beta1gamma1 expressed in Escherichia coli BL21 cells assessed as dissociation half life by SPR analysis
Series [32] has as its target AMPK alpha2/beta1/gamma1 (Homo sapiens, UniProt P54619+P54646+Q9Y478). Put plainly: biochemical.
Description: Activation of full-length recombinant N-terminal His-tagged human AMPKalpha2beta1gamma1 expressed in Escherichia coli BL21 cells using Cy-5 SAMS peptide as substrate preincubated for 60 mins followed by substrate addition and measured after 60 mins in presence of PP2a by TR-FRET assay
Series [33] deals with AMPK alpha2/beta2/gamma3 (Homo sapiens, UniProt O43741+P54646+Q9UGI9). Put plainly: biochemical.
Description: Activation of full-length recombinant N-terminal His-tagged human AMPKalpha2beta2gamma3 expressed in Escherichia coli BL21 cells using Cy-5 SAMS peptide as substrate preincubated for 60 mins followed by substrate addition and measured after 60 mins in presence of PP2a by TR-FRET assay
The target in series [34] is AMPK alpha1/beta2/gamma1 (Homo sapiens, UniProt O43741+P54619+Q13131). Put plainly: biochemical.
Description: Activation of full-length recombinant N-terminal His-tagged human AMPKalpha1beta2gamma1 expressed in Escherichia coli BL21 cells using Cy-5 SAMS peptide as substrate preincubated for 60 mins followed by substrate addition and measured after 60 mins in presence of PP2a by TR-FRET assay
Series [35] concerns the target T1, AMP-activated protein kinase (AMPK) alpha-1/beta-1/gamma-1 (Homo sapiens, UniProt P54619+Q13131+Q9Y478). Put plainly: biochemical.
Description: Binding affinity to Bap-tagged human AMPKalpha1beta1gamma1 expressed in Escherichia coli BL21 cells by SPR analysis
The target in series [36] is AMPK alpha2/beta2/gamma1 (Homo sapiens, UniProt O43741+P54619+P54646). Put plainly: biochemical.
Description: Activation of full-length recombinant N-terminal His-tagged human AMPKalpha2beta2gamma1 expressed in Escherichia coli BL21 cells using Cy-5 SAMS peptide as substrate preincubated for 60 mins followed by substrate addition and measured after 60 mins in presence of PP2a by TR-FRET assay
The nature of series [37]: Drug level in human hepatocytes treated with (S)-4,6-difluoro-5-(4-(tetrahydro-2H-pyran-2-yl)phenyl)-1H-indole-3-carboxylic acid at 10 uM after 4 hrs by HPLC-UV analysis. It is filed as ADME, cell-based, Hepatocyte.
The target of series [38] is T1, AMP-activated protein kinase (AMPK) alpha-1/beta-1/gamma-1. Put plainly: biochemical. This is another data set of the same source.
Description: Activation of full-length recombinant N-terminal His-tagged human AMPKalpha1beta1gamma1 expressed in Escherichia coli BL21 cells using Cy-5 SAMS peptide as substrate preincubated for 60 mins followed by substrate addition and measured after 60 mins in presence of PP2a by TR-FRET assay

The results in this text go back to ChEMBL document CHEMBL4229467, “Acyl Glucuronide Metabolites of 6-Chloro-5-[4-(1-hydroxycyclobutyl)phenyl]-1 H-indole-3-carboxylic Acid (PF-06409577) and Related Indole-3-carboxylic Acid Derivatives are Direct Activators of Adenosine Monophosphate-Activated Protein Kinase (AMPK)” (J Med Chem, 2018).

Where only a bound is given, the exact number is not on record here.

T1 sequence (P54619 whole entry): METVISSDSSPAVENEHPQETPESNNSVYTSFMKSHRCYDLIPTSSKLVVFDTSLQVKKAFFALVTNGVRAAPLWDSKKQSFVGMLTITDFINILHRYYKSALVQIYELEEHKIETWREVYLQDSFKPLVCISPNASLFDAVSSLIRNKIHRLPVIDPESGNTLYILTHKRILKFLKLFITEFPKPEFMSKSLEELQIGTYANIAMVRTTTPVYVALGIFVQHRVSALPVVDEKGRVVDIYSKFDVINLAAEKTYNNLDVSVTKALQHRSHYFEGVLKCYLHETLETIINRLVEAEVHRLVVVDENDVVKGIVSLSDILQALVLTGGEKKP
T1 sequence (Q9Y478 whole entry): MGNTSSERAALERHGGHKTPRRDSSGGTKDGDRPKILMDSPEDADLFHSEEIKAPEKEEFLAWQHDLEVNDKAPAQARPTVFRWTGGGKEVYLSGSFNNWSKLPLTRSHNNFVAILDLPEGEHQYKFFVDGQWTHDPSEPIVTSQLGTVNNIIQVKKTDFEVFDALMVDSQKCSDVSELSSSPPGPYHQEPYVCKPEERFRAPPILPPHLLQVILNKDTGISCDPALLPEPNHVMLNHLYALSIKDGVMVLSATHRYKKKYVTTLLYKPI
T1 sequence (Q13131 whole entry): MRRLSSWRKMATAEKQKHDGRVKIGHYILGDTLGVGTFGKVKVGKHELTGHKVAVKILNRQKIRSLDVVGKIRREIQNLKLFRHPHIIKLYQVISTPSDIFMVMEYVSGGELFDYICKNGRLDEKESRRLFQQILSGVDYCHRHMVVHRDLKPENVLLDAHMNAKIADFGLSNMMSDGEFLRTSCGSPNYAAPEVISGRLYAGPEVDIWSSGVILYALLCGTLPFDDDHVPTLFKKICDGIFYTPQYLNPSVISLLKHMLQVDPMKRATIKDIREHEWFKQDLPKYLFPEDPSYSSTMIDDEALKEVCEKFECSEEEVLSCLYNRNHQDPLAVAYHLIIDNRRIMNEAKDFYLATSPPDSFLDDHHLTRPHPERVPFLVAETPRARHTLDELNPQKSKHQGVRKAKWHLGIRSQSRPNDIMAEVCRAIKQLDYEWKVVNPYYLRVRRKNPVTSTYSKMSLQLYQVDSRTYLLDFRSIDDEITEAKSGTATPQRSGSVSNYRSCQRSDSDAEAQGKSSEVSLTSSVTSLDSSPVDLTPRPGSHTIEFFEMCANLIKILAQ
AMP-activated protein kinase (AMPK) alpha-1/beta-1/gamma-1 (Homo sapiens), sequence (P54619 whole entry): as the sequence (P54619 whole entry) above
AMP-activated protein kinase (AMPK) alpha-1/beta-1/gamma-1 (Homo sapiens), sequence (Q13131 whole entry partner): as the sequence (Q13131 whole entry) above
AMP-activated protein kinase (AMPK) alpha-1/beta-1/gamma-1 (Homo sapiens), sequence (Q9Y478 2-270 partner limits assumed): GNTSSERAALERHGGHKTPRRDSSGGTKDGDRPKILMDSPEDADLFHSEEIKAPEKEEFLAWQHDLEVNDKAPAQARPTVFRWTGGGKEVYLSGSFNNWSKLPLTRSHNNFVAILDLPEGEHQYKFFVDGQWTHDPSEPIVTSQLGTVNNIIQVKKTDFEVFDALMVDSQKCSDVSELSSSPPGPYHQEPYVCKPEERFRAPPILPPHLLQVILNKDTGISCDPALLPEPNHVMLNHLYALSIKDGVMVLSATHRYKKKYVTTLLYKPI
AMPK alpha1/beta2/gamma1, sequence (O43741 whole entry): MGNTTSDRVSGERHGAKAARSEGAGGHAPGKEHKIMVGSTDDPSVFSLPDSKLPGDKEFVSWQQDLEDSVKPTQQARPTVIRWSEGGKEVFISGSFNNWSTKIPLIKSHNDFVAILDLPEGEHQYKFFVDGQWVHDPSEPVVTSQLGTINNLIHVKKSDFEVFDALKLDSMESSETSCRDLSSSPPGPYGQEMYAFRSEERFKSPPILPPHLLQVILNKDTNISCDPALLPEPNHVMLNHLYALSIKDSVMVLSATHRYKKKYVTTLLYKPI
AMPK alpha1/beta2/gamma1, sequence (P54619 whole entry): as the sequence (P54619 whole entry) above
AMPK alpha1/beta2/gamma1, sequence (Q13131 whole entry): as the sequence (Q13131 whole entry) above
AMPK alpha2/beta2/gamma1, sequence (P54646 whole entry): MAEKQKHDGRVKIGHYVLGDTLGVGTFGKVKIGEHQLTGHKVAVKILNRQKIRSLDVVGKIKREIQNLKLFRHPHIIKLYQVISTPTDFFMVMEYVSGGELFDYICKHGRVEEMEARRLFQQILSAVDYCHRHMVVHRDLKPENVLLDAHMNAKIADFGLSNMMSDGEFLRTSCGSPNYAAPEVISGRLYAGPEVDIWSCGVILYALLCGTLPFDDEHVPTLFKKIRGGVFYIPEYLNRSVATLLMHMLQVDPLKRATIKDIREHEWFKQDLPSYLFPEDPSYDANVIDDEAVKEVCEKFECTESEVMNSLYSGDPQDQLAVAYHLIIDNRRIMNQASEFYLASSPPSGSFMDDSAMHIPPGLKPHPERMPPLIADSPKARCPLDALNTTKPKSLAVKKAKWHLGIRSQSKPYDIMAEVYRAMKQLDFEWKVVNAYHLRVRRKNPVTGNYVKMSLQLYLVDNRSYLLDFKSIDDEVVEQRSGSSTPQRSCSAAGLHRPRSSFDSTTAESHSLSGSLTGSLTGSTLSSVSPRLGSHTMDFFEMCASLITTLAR
AMPK alpha2/beta2/gamma1, sequence (O43741 whole entry): as the sequence (O43741 whole entry) above
AMPK alpha2/beta2/gamma1, sequence (P54619 whole entry): as the sequence (P54619 whole entry) above
AMPK alpha2/beta1/gamma1, sequence (P54646 whole entry): as the sequence (P54646 whole entry) above
AMPK alpha2/beta1/gamma1, sequence (P54619 whole entry): as the sequence (P54619 whole entry) above
AMPK alpha2/beta1/gamma1, sequence (Q9Y478 whole entry): as the sequence (Q9Y478 whole entry) above
AMPK alpha2/beta2/gamma3, sequence (P54646 whole entry): as the sequence (P54646 whole entry) above
AMPK alpha2/beta2/gamma3, sequence (O43741 whole entry): as the sequence (O43741 whole entry) above
AMPK alpha2/beta2/gamma3, sequence (Q9UGI9 whole entry): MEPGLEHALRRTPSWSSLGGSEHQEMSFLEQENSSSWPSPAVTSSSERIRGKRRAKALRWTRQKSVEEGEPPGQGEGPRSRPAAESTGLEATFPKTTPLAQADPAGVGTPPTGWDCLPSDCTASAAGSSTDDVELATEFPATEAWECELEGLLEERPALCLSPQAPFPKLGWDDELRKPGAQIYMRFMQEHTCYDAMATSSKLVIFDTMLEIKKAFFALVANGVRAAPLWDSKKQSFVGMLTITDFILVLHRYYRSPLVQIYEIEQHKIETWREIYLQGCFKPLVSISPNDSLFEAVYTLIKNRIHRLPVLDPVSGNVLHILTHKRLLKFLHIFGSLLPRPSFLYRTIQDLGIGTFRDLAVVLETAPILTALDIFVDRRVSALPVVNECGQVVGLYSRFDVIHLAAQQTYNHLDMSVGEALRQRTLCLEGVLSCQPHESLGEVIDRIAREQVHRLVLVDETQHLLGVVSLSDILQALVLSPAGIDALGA

As for `COc1nc(N(C)C)ccc1-c1cc2c(C(=O)O[C@@H]3O[C@H](C(=O)O)[C@@H](O)[C@H](O)[C@H]3O)c[nH]c2cc1Cl`, in [1], the Drug metabolism entry is “Metabolite_Detected”. For the same compound, in [2], the log distribution coefficient (logD) at 1 h is -0.05. In addition, in series [3], the half-life was more than 21 h. In series [4], this compound gave a Papp of 0.3 ×10⁻⁶ cm/s. Besides, the Retention_time in series [5] was determined as 7.96 min. In [6], this compound returned a half-life at 10 µM of more than 6.67 h. In addition, the hepatocyte CLint in [7] is less than 3 µL/min/1e6 cells.

Compound `COc1nc(N(C)C)ccc1-c1cc2c(C(=O)O)c[nH]c2cc1Cl` yielded a logD at 1 h in series [2] of 2.3.

On to `O=C(O)c1c[nH]c2cc(F)c(-c3ccc([C@@H]4CCCCO4)cc3)c(F)c12`, for which, in series [2], the logD at 1 h is 1.8. In series [5], this compound gave a Retention_time of 9.72 min. Further, in series [8], the Drug metabolism entry is “Metabolite_Detected”.

On to `O=C(O[C@@H]1O[C@H](C(=O)O)[C@@H](O)[C@H](O)[C@H]1O)c1c[nH]c2cc(Cl)c(-c3ccc(C4(O)CCC4)cc3)cc12`, for which the Drug metabolism entry in [9] is given as “Metabolite_Detected”. The hepatocyte CLint was less than 6 µL/min/1e6 cells in series [10], less than 6 µL/min/1e6 cells in [16], less than 6 µL/min/1e6 cells in [18] and less than 3 µL/min/1e6 cells in series [7]. Also, the dose excreted was determined as 9.8% in [11] and 1% in [29]. This compound had a logD at 1 h in [2] of -0.14. Besides, the figures for the AUC(0-t) at 24 h in [12] and in [14] were 1750 ng·h/mL and 8850 ng·h/mL, respectively. In addition, the clearance was found to be 0.99 mL/min/kg in series [13] and 9.85 mL/min/kg in [26]. The half-life in series [3] was more than 21 h; in series [19] it was more than 4 h; in [21] it was more than 4 h; in [24] it was 18 h; in series [25] it was 6.96 h; in [30], more than 4 h. This compound also came in with a Papp in series [4] of 0.6 ×10⁻⁶ cm/s. The compound also gave a Retention_time in series [5] of 7.09 min. For the same compound, the Vd in series [15] stood at 0.4 L/kg; in [28], 4.52 L/kg. Also, the fraction unbound in series [17] was determined as 0.019; in series [22] it was 0.028; in series [23], 0.0018. Besides, the AUC worked out at 101 ng·h/mL in [20] and 303 ng·h/mL in [27]. In series [6], this compound displayed a half-life at 10 µM of more than 6.67 h.

With `O=C(O[C@@H]1O[C@H](C(=O)O)[C@@H](O)[C@H](O)[C@H]1O)c1c[nH]c2cc(F)c(-c3ccc([C@@H]4CCCCO4)cc3)c(F)c12`, in series [2], the logD at 1 h is 0.08. This compound also had a T1/2 in series [31] of 15.3 s. Further, in [3], the half-life was more than 21 h. The same compound gave an apparent permeability coefficient (Papp) in series [4] of 0.3 ×10⁻⁶ cm/s. For the same compound, the EC50 in series [32] was 332 nM; in [33], more than 40000 nM; in series [34], more than 40000 nM; in series [36], more than 40000 nM; in series [38], 59 nM. In series [5], this compound had a Retention_time of 8.37 min. Moreover, the Kd in series [35] came out at 198 nM. Besides, in series [37], the Drug metabolism result is reported as “Metabolite_Detected”.

On to `O=C(NO)c1c[nH]c2cc(Cl)c(-c3ccc(C4(O)CCC4)cc3)cc12`, for which the Drug metabolism entry in series [9] is “Metabolite_Detected”. Moreover, the Retention_time in [5] is listed as 7.25 min.

As a reminder, the logD is lipophilicity at a set pH, counting ionised and neutral species. Broadly, the half-life is how long it takes for the measured level to halve. By Papp is commonly meant the rate of passage across a membrane or cell layer, normalised by area and donor concentration. By AUC(0-t) is commonly meant exposure summed from dosing to a finite time, without extrapolation to infinity. As usually defined, the clearance is the rate of elimination divided by the concentration. Broadly, the fraction unbound is the share of the substance not bound to proteins or other matrix. What is called AUC is the area under the concentration-time curve, a measure of exposure. Broadly, the EC50 is the concentration at which the effect is half-maximal. For orientation: Kd means a measure of binding affinity in units of concentration.
